What was measured:
[1] = In vitro free radical inhibition test (DPPH method); conditions: 8 μL of 20 mmol/L compound in 1 mL DPPH 0.059 mg/mL ethanol, 60 min dark, 517 nm; for inhibition rate %: DPPH; for Relative inhibition ability on free radicals: inhibition rate of AGI1067 on DPPH defined as 100
Excerpt: 1. In Vitro Free Radical Inhibition Test (DPPH Method)
The single electron of DPPH radical has a strong absorption at […], and its alcohol solution is purple. In the presence of a free radical scavenger, the absorption of DPPH radical is weakened or disappeared for the reason that the free radical scavenger is paired with the single electron of DPPH radical, and the degree of discoloration is quantitatively related to the number of electrons DPPH radical receives. Therefore, a spectrophotometer can be used to quickly and quantitatively analyze the free radical scavenging rate of the compound.
1) 1 mL solution of DPPH in absolute ethanol (concentration: 0.059 mg/mL) was taken; 2) 8 μL of the compound to be tested (20 mmol/L) were added; 3) after mixing well, the resultant was kept in dark at room temperature for 60 minutes, 4) the absorbance of the sample at 517 nm was measured.

[2] = system: golden hamsters (60% high-fat food, STZ induced); assay: Golden hamster disease model, animal model induction group (16-week-old group): blood biochemical indexes and body weight; assay type: in vivo; conditions: for change rate of blood glucose %: 0.1 mL of 6.8 mg/mL DMSO solution + 0.25 mL whole milk by gavage once a day for 2 weeks; for change rate of body weight after deduction of DMSO blank %: DMSO blank deducted; for average body weight after administration/g / change of body weight/g / change rate of body weight %: after gavage once a day for 2 weeks; for HDL % / LDL % / total cholesterol % / triglyceride %: change rate, gavage once a day for 2 weeks
Protocol: (§1) Animals and feed: 1) 8-week-old male golden hamsters with a body weight range of 100±5 g were selected; 2) 60% high-fat food; 3) 30% high-fat food; 4) general feed: NRC standard feed, containing 5% fat, total calories 4200 kcal/kg.
Animal model induction group (16-week-old group): 1) fed with 60% high-fat food for 2 weeks under standard environment; 2) STZ intraperitoneal injection twice every two days, 50 mg/kg each time; 3) After STZ induction, the golden hamsters were continuous fed for 1 week; 4) Blood was taken from the ocular venous plexus, and the initial body weight, blood glucose, total cholesterol, LDL-c, HDL-c and triglyceride were measured, and the golden hamsters were grouped in parallel according to animal biochemical indicators, 8 in each group; 5) Gavage of compounds: 0.1 mL of solution of compound (concentration: 6.8 mg/mL, DMSO solution) and 0.25 mL of whole milk were mixed evenly and administrated by gavage once a day for 2 weeks; 6) Blank control: 0.1 mL of DMSO and 0.25 mL of whole milk were mixed evenly and administrated by gavage once a day for 2 weeks; 7) Observation time: 14 days later, blood was taken from the ocular venous plexus, and the body weight, blood glucose, total cholesterol, LDL-c, HDL-c and triglyceride were measured.
(§2) Instruments: Shimadzu UV-1750 spectrophotometer, clinical determination kit (Changchun Huili Biotechnology Co., Ltd.)
(§3) Determination of blood glucose: glucose oxidase method, kit
(§4) Determination of total cholesterol (COD-PAP method), kit
(§5) Determination of low density lipoprotein cholesterol (direct method), kit
(§6) Determination of triglyceride (GP-PAP method)
(§7) Determination of high density lipoprotein (direct method), kit

[3] = system: golden hamsters (high-fat food, STZ induced); assay: Golden hamster disease model, animal model induction group (24-week-old group): blood biochemical indexes and body weight; assay type: in vivo; conditions: for change rate of blood glucode %: 0.1 mL of 6.8 mg/mL DMSO solution + 0.25 mL whole milk by gavage once a day for 2 weeks; for change rate of body weight after deduction of DMSO blank %: DMSO blank deducted; for change of body weight/g / change rate of body weight %: after gavage once a day for 2 weeks; for HDL % / LDL % / total cholesterol % / triglyceride %: change rate, gavage once a day for 2 weeks; for average body weight at 24 weeks/g: initial weight before administration
Excerpt: as §1
Animal model induction group (24-week-old group): After STZ induction, the golden hamsters were continuous fed with 30% high-fat food for 8 weeks, blood was taken from the ocular venous plexus, and the initial body weight, blood glucose concentration, total cholesterol, LDL-c, HDL-c and triglyceride were measured, and the golden hamsters were grouped in parallel according to animal biochemical indicators, 8 in each group; 5) Gavage of compounds: 0.1 mL of solution of compound (concentration: 6.8 mg/mL, DMSO solution) and 0.25 mL of whole milk were mixed evenly and administrated by gavage once a day for 2 weeks; 6) Blank control: 0.1 mL of DMSO and 0.25 mL of whole milk were mixed and administrated by gavage, once a day for 2 weeks; 6) Blank control: 0.1 mL of DMSO were mixed with 0.25 mL of whole milk, and administrated by gavage, once a day for 2 weeks; 7) 14 days later, blood was taken from the ocular venous plexus, and the body weight, blood glucose, total cholesterol, LDL-c, HDL-c and triglyceride were measured.
as §2, §3, §4, §5, §6, §7

[4] = system: Malondialdehyde (MDA) in serum; assay: In vivo anti-lipid oxidation experiment (serum MDA, TBA method); parameters: inhibition rate %: concentration or dose not given beside the values; conditions: MAD lipid peroxidation in vivo; for inhibition rate %: relative to solvent DMSO and Chow averages; for avarage value of OD: serum, TBA method, 532 nm
Excerpt: Experimental principle: Malondialdehyde (MDA) in liposome degradation products could condense with thiobarbituric acid (TBA) to form a red product which has a maximum absorption peak at 532 nm. The spectrophotometer was used to measure the relative absorption value to calculate the antioxidant value.
Reagents: Malondialdehyde (MDA) test kit (article number: A003-1, […], Nanjing Jiancheng), glacial acetic acid of analytically pure grade.
Reagent preparations: 1) Reagent I: Reagent 1 in the kit was taken out from the refrigerator and subjected to natural warming until a transparent liquid is obtained; 2) Reagent II: 170 mL of double-distilled water was added to each bottle and mixed; 3) Reagent III: A dry powder in the kit was dissolved in 60 mL of double-distilled water at 90 to 100° C. After the dry powder was dissolved totally, 30 mL of glacial acetic acid was added and kept in dark place; 4) Standard: 10 nmol/mL tetraethoxypropane.
Experimental procedures: 1) Blank tube: To 2 mL centrifuge tube were added anhydrous ethanol (70 μl), Reagent I (70 μl), Reagent II (0.8 mL) and Reagent III (0.8 mL) in sequence; 2) Standard tube: To 2 mL centrifuge tube were added standard (70 μl), Reagent I (70 μl), Reagent 11 (0.8 mL) and Reagent III (0.8 mL) in sequence; 3) Measuring tube: To 2 mL centrifuge tube were added the serum to be tested and physiological saline (the total volume of serum and physiological saline is 70 μl), Reagent I (70 μl), Reagent II (0.8 mL) and Reagent III (0.8 mL) in sequence; 4) Control tubes: all samples are set up with corresponding control tubes. To a 2 mL centrifuge tube were added the serum to be tested and physiological saline (the total volume of serum and physiological saline is 70 μl), Reagent I (70 μl), Reagent II (0.8 mL) and 50% glacial acetic acid (0.8 mL) in sequence.
After the above reagents were added, the mixture was mixed homogenously. Then the mixture was left in the water bath at 95° C. for 60 minutes. The sample was centrifuged at 4000 rpm for 10 minutes. The supernatant was taken for the measurement of the OD value.
Experimental data processing: the MDA content in serum was calculated as follows: MDA=(OD valuemeasured−OD valuecontrol)/OD valuestandard*concentration of the standard Inhibition rate %=100−(ODsample-average value−average value of Chow)/(average value of the solvent DMSO−average value of Chow)*100

| SMILES | inhibition rate % [1] | Relative inhibition ability on free radicals [1] | change rate of blood glucose % [2] | change rate of body weight after deduction of DMSO blank % [2] | average body weight after administration/g [2] | change of body weight/g [2] | change rate of body weight % [2] | HDL % [2] | LDL % [2] | total cholesterol % [2] | triglyceride % [2] | change rate of blood glucode % [3] | change rate of body weight after deduction of DMSO blank % [3] | change of body weight/g [3] | change rate of body weight % [3] | HDL % [3] | LDL % [3] | total cholesterol % [3] | inhibition rate % [4] | avarage value of OD [4] | further results |
| --- | --- | --- | --- | --- | --- | --- | --- | --- | --- | --- | --- | --- | --- | --- | --- | --- | --- | --- | --- | --- | --- |
| CC(C)(Sc1cc(C(C)(C)C)c(O)c(C(C)(C)C)c1)Sc1cc(C(C)(C)C)c(O)c(C(C)(C)CCOC(=O)CCCCC2CCSS2)c1 (centres unmarked) [Compound 12, 3-(3-(tert-butyl)-5-((2-((3,5-di-tert-butyl-4-hydroxyphenyl)thio)propan-2-yl)thio)-2-hydroxyphenyl)-3-methylbutyl 5-(1,2-dithiolan-3-yl)pentanoate] | 36.5% | 83.6 | −17.0% | −1.6% | 135.4 g | -2.3 g | −1.6% | −3.4% | −35.8% | −30.7% | −43.0% | −29.0% | −6.6% | -17.3 g | −14.2% | −72.1% | −32.7% | −0.3% | 64.0% | 6.82 | triglyceride % [3]: −51.7%; average body weight at 24 weeks/g [3]: 122.4 g |
| CC(O)c1cc(SSc2cc(C(C)O)c(O)c(C(C)(C)C)c2)cc(C(C)(C)C)c1O (centres unmarked) [Compound 5, 4,4′-disulfanediyl-bis(2-(tert-butyl)-6-(1-hydroxyethyl)phenol)] | 48.1% | 110.2 | 19.7% | −1.9% | 145.2 g | 10.6 g | 7.9% | 38.8% | −24.9% | −12.2% | −28.5% | 11.5% | −13.6% | -25.0 g | −21.1% | −69.2% | −33.9% | 6.6% | 79.6% | 6.21 | triglyceride % [3]: −65.8%; average body weight at 24 weeks/g [3]: 118.1 g |
| CC(C)(Sc1cc(C(C)(C)C)c(O)c(C(C)(C)C)c1)Sc1cc(C(C)(C)C)c(O)c(C(C)(C)CCO)c1 [Compound 8, 2,6-di-tert-butyl-4-((2-((3-(tert-butyl)-4-hydroxy-5-(4-hydroxy-2-methylbutan-2-yl)phenyl)thio)propan-2-yl)thio)phenol] | 37.7% | 86.5 | 48.6% | −6.1% | 149.0 g | 5.3 g | 3.7% | 60.2% | 11.1% | −7.6% | 59.1% |  |  |  |  |  |  |  | 59.8% | 6.98 |  |
| CC(C)(Sc1cc(C(C)(C)C)c(O)c(C(C)(C)C)c1)Sc1cc(C(C)(C)C)c(OC(=O)CCC(=O)NCCS(=O)(=O)O)c(C(C)(C)C)c1 [Compound 26, 2-(4-(2,6-di-tert-butyl-4-((2-((3,5-di-tert-butyl-4-hydroxyphenyl)thio)propan-2-yl)thio)phenoxy)-4-oxobutanamido)ethane-1-sulfonic acid] | 16.3% | 37.4 | −16.8% | −2.9% | 145.2 g | 9.4 g | 6.9% | 108.8% | −6.2% | −9.0% | 3.0% | −14.2% | −6.4% | -18.1 g | −13.9% | −67.5% | −23.0% | 30.5% | 108.7% | 5.10 | triglyceride % [3]: −5.1%; average body weight at 24 weeks/g [3]: 130.1 g |
| COC(=O)CNCCC(C)(C)c1cc(SC(C)(C)Sc2cc(C(C)(C)C)c(O)c(C(C)(C)C)c2)cc(C(C)(C)C)c1O [Compound 21] | 22.3% | 51.2 | −35.5% | −1.6% | 142.5 g | 10.7 g | 8.1% | 56.3% | 14.2% | −0.6% | −6.5% | −12.4% | −6.1% | -16.4 g | −13.6% | −70.1% | −21.8% | 23.5% | 53.3% | 7.23 | triglyceride % [3]: −65.1%; average body weight at 24 weeks/g [3]: 120.0 g |

Reference: patent publication US11649220B2 (DEMOTECH.INC., priority 2018, dated 2023)
